Literature values, collected in publication PMC5465257, “Evaluation of JNJ-54717793 a Novel Brain Penetrant Selective Orexin 1 Receptor Antagonist in Two Rat Models of Panic Attack Provocation” (Frontiers in Pharmacology, 2017).

Tests used:
GABA synthesis = tested on: GABA synthesis; design: method as in earlier work; settings: 3.5 nmol/0.5 μl per hour, unilateral infusions; ref Shekhar and DiMicco, 1987; Abshire et al., 1988; Shekhar et al., 1996, 2006; Shekhar and Keim, 1997; cited from earlier work
[1] = design: method as in Beig et al., 2015a; settings: systemic administration; ref Beig et al., 2015a; cited from earlier work
Sprague-Dawley rats = tested on: Sprague-Dawley rats; design: method as in Bonaventure et al., 2015b; Johnson et al., 2015; settings: 20% CO2 model, ref Bonaventure et al., 2015b, Johnson et al.; cited from earlier work
[2] = design: method as in Furlong et al., 2009; settings: ref Furlong et al., 2009; cited from earlier work

Question: With C=CC[C@H](N)C(=O)O [1-allyglycine] as the molecule, how does the “reduction of local GABA concentrations” value (GABA synthesis) read?
Answer: approximately 60%

Question: For COc1ccc(C[C@H]2c3cc(OC)c(OC)cc3CCN2[C@@H](C(=O)NC(C)C)c2ccccc2)cc1OC [ACT335827], which “novelty stress (cage changes) induced cardioexcitation” value [1] is on record?
Answer: attenuates

Question: Which “novelty stress (cage changes) induced cardioexcitation” value [1] does the source give for CCN(Cc1cccnc1)C(=O)CN(c1ccc(OC)nc1)S(=O)(=O)c1ccccc1C [EMPA, N-ethyl-2-[(6-methoxy-pyridin-3-yl)-(toluene-2-sulfonyl)-amino]-N-pyridin-3-ylmethyl-acetamide] here?
Answer: attenuates

Question: With CC1(C)OC[C@H](NC(=O)Nc2ccc(Br)cc2Br)[C@H](c2ccccc2)O1 [JNJ-10397049] as the molecule, how does the “panic responses to 20% CO2” value (Sprague-Dawley rats) read?
Answer: did not alter

Question: For CNC(=O)[C@@H](c1ccccc1)N1CCc2cc(OC)c(OC)cc2[C@@H]1CCc1ccc(C(F)(F)F)cc1 [almorexant], which “locomotor and cardiovascular responses to exploration and footshock” value [2] is on record?
Answer: attenuated
